Test results from ChEMBL document CHEMBL5137099, “Discovery of Novel cccDNA Reducers toward the Cure of Hepatitis B Virus Infection” (J Med Chem, 2022).
≈ marks a conversion by molar mass, not a printed value. Calls of active or inactive are those of the source. The rule behind the calls is not given here.

Tests used:
[1] = test system: Hepatitis B virus; test: Antiviral activity against HBV infected in human HepDES19 cells assessed as reduction in HBV cccDNA production by measuring inhibition of HBeAg secretion incubated for 5 days by ELISA; assay type: functional, organism-based; conditions: HepDES19, 120 h
[2] = Aqueous solubility of the compound; assay type: physicochemical; conditions: buffer
[3] = test system: Hepatitis B virus; test: Antiviral activity against HBV infected in human HepDES19 cells assessed as reduction in HBV cccDNA production by measuring inhibition of HBeAg secretion at 0.3 to 10 uM by southern blot analysis; assay type: functional, organism-based; conditions: dose 0.3-10 µM
[4] = test system: Hepatitis B virus; test: Antiviral activity against HBV infected in human primary hepatocyte cells assessed as reduction in HBV cccDNA production by measuring inhibition of HBsAg secretion measured after 48 hrs by ELISA; assay type: functional, organism-based
[5] = Cytotoxicity against human HepDES19 cells assessed as reduction in cell viability measured after 5 days by CCK-8 assay; assay type: toxicity, cell-based; conditions: time 5 day
[6] = Metabolic stability in mouse hepatocytes assessed as intrinsic clearance; assay type: ADME, cell-based, Hepatocyte; conditions: read-out: CLH
[7] = Therapeutic index, ratio of CC50 for cytotoxicity against human HepDES19 cells assessed as reduction in cell viability measured after 5 days by CCK-8 assay to IC50 for antiviral activity against HBV infected in human HepDES19 cells assessed as reduction in HBV cccDNA production by measuring inhibition of HBeAg secretion incubated for 5 days by ELISA; assay type: toxicity, cell-based; conditions: time 5 day, read-out: Ratio CC50/IC50
[8] = test system: Hepatitis B virus; test: Antiviral activity against HBV infected in human HepG2 cells assessed as reduction in HBeAg secretion incubated for 5 days by counter screen assay; assay type: functional, organism-based; conditions: HepG2, 120 h
[9] = Octanol-aqueous buffer distribution coefficient, log D of the compound at pH 7.4 by CAMDIS assay; assay type: physicochemical
[10] = Permeability of the compound by PAMPA analysis; assay type: ADME; conditions: read-out: permeability

Row | IC50 [1] [µM] | solubility [2] [mg/mL] | CLint scaled [6] [L/h/kg] | logD [9] | Papp [10] [nm/s] | SMILES | Activity [3] | IC50 [4] [µM] | CC50 at 120 h [5] [µM] | selectivity ratio at 120 h [7] | IC50 [8] [µM]
1 | 0.71 | < 0.001 | 5.2 | – | – | O=C(Nc1ccc2c(=O)c3cccc(F)c3oc2c1)c1ccccc1F | Active | 5.45 | > 100 | > 141 | > 50
2 | 1.46 | 0.014 (≈ 38.7 µM) | 2.3 | < -0.5 | 18.3 | O=C(O)C1CCN(c2ccc3c(=O)c4c(F)ccc(Cl)c4oc3c2)C1 (configuration not stated) | – | 8.48 | – | – | > 50
3 | 0.75 | < 0.465 | – | 1.5 | 13.4 | Cc1cc2c(=O)c3cccc(Cl)c3oc2cc1N1CCC(C(=O)O)C1 (configuration not stated) | – | 3 | – | – | > 50
4 | 0.25 | 0.1 (≈ 243 µM) | 0.714 | 1.42 | 11.8 | O=C(O)C1CCN(c2ccc3c(=O)c4c(C(F)(F)F)ccc(Cl)c4oc3c2)C1 (configuration not stated) | – | 1.21 | – | – | > 50
5 | 0.65 | 0.029 (≈ 76.7 µM) | 1.22 | 1.42 | 11.9 | O=C(O)C1CCN(c2ccc3c(=O)c4c(Cl)ccc(Cl)c4oc3c2)C1 (single isomer, unassigned) | – | 2.61 | – | – | > 50
6 | 2.36 | 0.032 (≈ 84.6 µM) | 2.09 | 1.44 | 17.2 | O=C(O)C1CCN(c2ccc3c(=O)c4c(Cl)ccc(Cl)c4oc3c2)C1 (configuration not stated) | – | 1.16 | – | – | > 50
